From patent US4912036A, “Rapid differentiation of bacteria using cyclic polypeptide antibiotics” (Eastman Kodak Company, priority 1986, dated 1990)

Experiments:
S. aureus [1] = test: Inhibition of RIND IX reduction by various cyclic polypeptide antibiotics; format: cell-based, Staphylococcus aureus; conditions: Test Method 1 (antibiotic in the test solution), S. aureus about 4.3×10^8 cells/ml, 100 μl of 1 mg/ml antibiotic solution, 30 minutes at 37° C., 635 nm
Method: The following materials were used in this example: stock solutions of RIND IX compound dispersion prepared as described above, glucose (10% in water), trimethyl-1,4-benzoquinone ETA (1.5 mg/ml methanol), and the antibiotics (1 mg/ml in dimethylsulfoxide). S. aureus cells were grown as described above. The final cell concentration in the assay mixture was about 4.3×10^8 cells/ml.
Test solutions were prepared by adding in the order: 1.2 ml of HEPES buffer, 50 μl glucose solution, 1.5 ml of RIND IX dispersion, 100 μl of antibiotic solution, 100 μl of cell suspension and 25 μl of ETA solution. Control solutions were prepared as described in Examples 2 and 3. Optical density readings (OD) were measured at 635 nm at 0 minutes and after incubation at 37° C. for 30 minutes for test and control solutions, and the change in density (ΔOD) was determined. Table VI below lists the results, expressed as corrected percent inhibition of the reduction of the RIND compound. The corrected percent inhibition is calculated by dividing the difference between the ΔOD obtained from the Cell Control without antibiotic and the ΔOD of the test solution, by ΔOD of the Cell Control without antibiotic. All readings were corrected by subtracting readings of the appropriate background Controls.
Solutions containing 2.9 ml HEPES, 50 μl of the antibiotic solution and 100 μl cell solution were incubated at 37° C. for 30 minutes, centrifuged for 10 minutes and decanted. The resulting pellet was then treated with 1.4 ml HEPES, 50 μl glucose solution, 1.5 ml RIND IX dispersion and 25 μl ETA solution, mixed well and the densities recorded as described above in Method 1. The corrected percent inhibition data was calculated as described in Method 1 above.

S. aureus [2] = test: RIND XXIX reduction solution assay, Δ fluorescence; format: cell-based, Staphylococcus aureus; conditions: S. aureus (gram +) about 5×10^7 cells/ml, tyrocidin 3.3 mg/ml, 37° C.
Method: (§1) Bacterial suspensions were prepared by growing the cells in BHT broth to stationary phase overnight at 37° C. P. auruginosa was grown with agitation. About 40 ml of each overnight culture was centrifuged, decanted and washed once with 0.05 molar potassium phosphate buffer or 0.05 molar N-2-hydroxy-ethylpiperazine-N'-2-ethanesulfonic acid (HEPES) buffer, pH 7.8, and resuspended in buffer.
(§2) Dispersions containing RIND compounds were prepared by dissolving the RIND compound in N,N-dimethylformamide (DMF) at 16 mg compound per ml of solvent. An aliquot (250 μl) of the resulting solution was added to 500 μl of TRITON X-100 surfactant. This mixture was then added dropwise with stirring to 25 ml of 0.05 molar HEPES buffer. A dispersion of RIND XXIX was prepared similarly except that DMF was acidified with 0.1% sulfuric acid. […]
(§3) The solutions were incubated at 37° C. for 30 minutes, and the change in fluorescence emission (Δ fluorescence) was determined as the difference between the readings taken when the solutions were first mixed and then after 30 minutes incubation. Measurements were made in a commercially available MICROFLUOR Reader (available from Dynatech Laboratories, Alexandria, Virginia, U.S.A.), modified with an excitation filter at 540 nm, an emission filter at 620 nm and a Xenon lamp.

S. faecalis [3] = test: RIND XXIX reduction solution assay, Δ fluorescence; format: cell-based, Streptococcus faecalis; conditions: S. faecalis (gram +) about 5×10^7 cells/ml, tyrocidin 3.3 mg/ml, 37° C.
Method: as §1, §2, §3

E. cloacae [4] = test: RIND XXIX reduction solution assay, Δ fluorescence; format: cell-based, Enterobacter cloacae; conditions: E. cloacae (gram -) about 5×10^7 cells/ml, tyrocidin 3.3 mg/ml, 37° C.
Method: as §1
(§4) Dispersions containing RIND compounds were prepared by dissolving the RIND compound in N,N-dimethylformamide (DMF) at 16 mg compound per ml of solvent. An aliquot (250 μl) of the resulting solution was added to 500 μl of TRITON X-100 surfactant. This mixture was then added dropwise with stirring to 25 ml of 0.05 molar HEPES buffer. A dispersion of RIND XXIX was prepared similarly except that DMF was acidified with 0.1% sulfuric acid. Compositions containing water-compatible RIND compounds were prepared as described above except the surfactant was omitted.
(§5) Each test solution contained the following: dispersion of RIND XXIX (25 μl) prepared as described above, glucose (400 μl of 10% aqueous solution), tryptose (400 μl of 10% aqueous solution), trimethyl-1,4-benzoquinone ETA (500 μl of 1.5 mg/ml methanol). Aliquots (200 μl) of the mixture were mixed with solutions of the antibiotics (50 μl). The cell suspensions (50 μl) were then added. The final concentration of gramcidin S and tyrocidin were 0.1 mg/ml and 3.3 mg/ml, respectively. The final cell concentration was about 5×10^7 cells/ml. Cell control solutions contained all reagents except antibiotics. Background controls consisted of both buffer and solution controls. […]
(§6) The solutions were incubated at 37° C. for 30 minutes, and the change in fluorescence emission (Δ fluorescence) was determined as the difference between the readings taken when the solutions were first mixed and then after 30 minutes incubation. Measurements were made in a commercially available MICROFLUOR Reader (available from Dynatech Laboratories, Alexandria, Virginia, U.S.A.), modified with an excitation filter at 540 nm, an emission filter at 620 nm and a Xenon lamp. […]

E. coli [5] = test: RIND XXIX reduction solution assay, Δ fluorescence; format: cell-based, Escherichia coli; conditions: E. coli (gram -) about 5×10^7 cells/ml, tyrocidin 3.3 mg/ml, 37° C.
Method: as §1, §4, §5, §6

K. pneumoniae [6] = test: RIND XXIX reduction solution assay, Δ fluorescence; format: cell-based, Klebsiella pneumoniae; conditions: K. pneumoniae (gram -) about 5×10^7 cells/ml, tyrocidin 3.3 mg/ml, 37° C.
Method: as §1, §4, §5, §6

P. vulgaris [7] = test: RIND XXIX reduction solution assay, Δ fluorescence; format: cell-based, Proteus vulgaris; conditions: P. vulgaris (gram -) about 5×10^7 cells/ml, tyrocidin 3.3 mg/ml, 37° C.
Method: as §1, §4, §5, §6

P. aeruginosa [8] = test: RIND XXIX reduction solution assay, Δ fluorescence; format: cell-based, Pseudomonas aeruginosa; conditions: P. aeruginosa (gram -) about 5×10^7 cells/ml, tyrocidin 3.3 mg/ml, 37° C.
Method: as §1, §4, §5, §6

S. aureus [9] = test: MTT reduction solution assay, ΔOD 540 nm; format: cell-based, Staphylococcus aureus; conditions: S. aureus (+) 5×10^7, tyrocidin 0.825 mg/ml, 37° C.
Method: (§7) These examples illustrate the differentiation of bacteria using a tetrazolium salt and phenolic dye as the reducible compounds and two cyclic polypeptide antibiotics according to the present invention. The tetrazolium salt was 3-(4,5-dimethyl-2-thiazolyl) -2,5-diphenyl-2H-tetrazolium bromide (MTT) which forms a colored formazan dye when reduced. The phenolic dye was 2,6-dichloroindophenol (DCIP) which forms a colorless species when reduced.
(§8) Solutions of the reducible compounds were prepared with the following: HEPES buffer (3 ml, 0.05 molar, pH 7.5), TRITON X-100 nonionic surfactant (1% concentration), glucose (50 μl of 10% in water), tryptose (50 μl of a 10% solution in water), MTT (25 μl of 5 mg/ml methanol) or DCIP (25 μl of 3 mg/ml methanol) and phenazine methosultate ETA (25 μl of 3 mg/ml methanol).
(§9) Test solutions were prepared from the following: reducible compound solution from above (200 μl), 50 μl of either gramicidin S solution (6 mg/ml methanol and 9 ml of buffer) or tyrocidin solution (100 mg/ml methanol and 8 ml of buffer) and 50 μl of cell suspension. […] The change in optical density (ΔOD) was determined after 30 minutes at 37° C. at 540 nm for the MTT assay and at 620 nm for the DCIP assay using a commercially available spectrophotometer.

S. faecalis [10] = test: MTT reduction solution assay, ΔOD 540 nm; format: cell-based, Streptococcus faecalis; conditions: S. faecalis (+) 5×10^7, tyrocidin 0.825 mg/ml, 37° C.
Method: as §7, §8, §9

E. cloacae [11] = test: MTT reduction solution assay, ΔOD 540 nm; format: cell-based, Enterobacter cloacae; conditions: E. cloacae (-) 5×10^7, tyrocidin 0.825 mg/ml, 37° C.
Method: as §7, §8, §9

E. coli [12] = test: MTT reduction solution assay, ΔOD 540 nm; format: cell-based, Escherichia coli; conditions: E. coli (-) 5×10^7, tyrocidin 0.825 mg/ml, 37° C.
Method: as §7, §8, §9

K. pneumoniae [13] = test: MTT reduction solution assay, ΔOD 540 nm; format: cell-based, Klebsiella pneumoniae; conditions: K. pneumoniae (-) 5×10^7, tyrocidin 0.825 mg/ml, 37° C.
Method: as §7, §8, §9

P. vulgaris [14] = test: MTT reduction solution assay, ΔOD 540 nm; format: cell-based, Proteus vulgaris; conditions: P. vulgaris (-) 5×10^7, tyrocidin 0.825 mg/ml, 37° C.
Method: as §7, §8, §9

P. aeruginosa [15] = test: MTT reduction solution assay, ΔOD 540 nm; format: cell-based, Pseudomonas aeruginosa; conditions: P. aeruginosa (-) 5×10^7, tyrocidin 0.825 mg/ml, 37° C.
Method: as §7, §8, §9

S. aureus [16] = test: DCIP reduction solution assay, ΔOD 620 nm; format: cell-based, Staphylococcus aureus; conditions: S. aureus (+) 5×10^7, tyrocidin 0.825 mg/ml, 37° C.
Method: as §7, §8, §9

S. faecalis [17] = test: DCIP reduction solution assay, ΔOD 620 nm; format: cell-based, Streptococcus faecalis; conditions: S. faecalis (+) 5×10^7, tyrocidin 0.825 mg/ml, 37° C.
Method: as §7, §8, §9

E. cloacae [18] = test: DCIP reduction solution assay, ΔOD 620 nm; format: cell-based, Enterobacter cloacae; conditions: E. cloacae (-) 5×10^7, tyrocidin 0.825 mg/ml, 37° C.
Method: as §7, §8, §9

E. coli [19] = test: DCIP reduction solution assay, ΔOD 620 nm; format: cell-based, Escherichia coli; conditions: E. coli (-) 5×10^7, tyrocidin 0.825 mg/ml, 37° C.
Method: as §7, §8, §9

K. pneumoniae [20] = test: DCIP reduction solution assay, ΔOD 620 nm; format: cell-based, Klebsiella pneumoniae; conditions: K. pneumoniae (-) 5×10^7, tyrocidin 0.825 mg/ml, 37° C.
Method: as §7, §8, §9

P. vulgaris [21] = test: DCIP reduction solution assay, ΔOD 620 nm; format: cell-based, Proteus vulgaris; conditions: P. vulgaris (-) 5×10^7, tyrocidin 0.825 mg/ml, 37° C.
Method: as §7, §8, §9

P. aeruginosa [22] = test: DCIP reduction solution assay, ΔOD 620 nm; format: cell-based, Pseudomonas aeruginosa; conditions: P. aeruginosa (-) 5×10^7, tyrocidin 0.825 mg/ml, 37° C.
Method: as §7, §8, §9

[23] = system: viable gram-positive and gram-negative bacteria; test: Differentiation in RIND XXIX solution assays, overall result; format: cell-based; conditions: gramicidin S 0.1 mg/ml, tyrocidin 3.3 mg/ml
Method: Each test solution contained the following: dispersion of RIND XXIX (25 μl) prepared as described above, glucose (400 μl of 10% aqueous solution), tryptose (400 μl of 10% aqueous solution), trimethyl-1,4-benzoquinone ETA (500 μl of 1.5 mg/ml methanol). Aliquots (200 μl) of the mixture were mixed with solutions of the antibiotics (50 μl). The cell suspensions (50 μl) were then added. The final concentration of gramcidin S and tyrocidin were 0.1 mg/ml and 3.3 mg/ml, respectively. The final cell concentration was about 5×10^7 cells/ml. Cell control solutions contained all reagents except antibiotics. Background controls consisted of both buffer and solution controls. The buffer control contained all reagents except antibiotics and cells. The solution control contained all reagents except cells.
as §3
This example illustrates the practice of this invention to identify a Proteus species in solution. Test solutions and cell control solutions were prepared and tested as described in Example 2 and 3 except that polymixin B was used at 0.01 mg/ml of methanol. The final cell concentration was about 5×10^7 cells/ml.

ristocetin was tested, and the “Corrected % Inhibition” value (S. aureus [1]) was “No Inhibition”.

In the case of tyrocidin, the “Δ Fluorescence (30 Minutes)” value (S. aureus [2]) is reported as 1834, the “Δ Fluorescence (30 Minutes)” value (S. faecalis [3]) is reported as 0880 and the “Δ Fluorescence (30 Minutes)” value (E. cloacae [4]) is reported as over 4000. The “Δ Fluorescence (30 Minutes)” value (E. coli [5]) was over 4000, the “Δ Fluorescence (30 Minutes)” value (K. pneumoniae [6]) was over 4000 and the “Δ Fluorescence (30 Minutes)” value (P. vulgaris [7]) was over 4000. The “Δ Fluorescence (30 Minutes)” value (P. aeruginosa [8]) was over 4000, the “ΔOD, 540 nm after 30 Minutes” value (S. aureus [9]) was 0.113 and the “ΔOD, 540 nm after 30 Minutes” value (S. faecalis [10]) was 0.048. The “ΔOD, 540 nm after 30 Minutes” value (E. cloacae [11]) was 0.748, the “ΔOD, 540 nm after 30 Minutes” value (E. coli [12]) was 1.207 and the “ΔOD, 540 nm after 30 Minutes” value (K. pneumoniae [13]) was 0.842. For the same substance, the “ΔOD, 540 nm after 30 Minutes” value (P. vulgaris [14]) was 0.778, the “ΔOD, 540 nm after 30 Minutes” value (P. aeruginosa [15]) was 0.692 and the “ΔOD, 620 nm after 30 Minutes” value (S. aureus [16]) was 0.074. For the same substance, the “ΔOD, 620 nm after 30 Minutes” value (S. faecalis [17]) was 0.048, the “ΔOD, 620 nm after 30 Minutes” value (E. cloacae [18]) was 0.999 and the “ΔOD, 620 nm after 30 Minutes” value (E. coli [19]) was 1.054. The “ΔOD, 620 nm after 30 Minutes” value (K. pneumoniae [20]) was 0.819, the “ΔOD, 620 nm after 30 Minutes” value (P. vulgaris [21]) was 0.941 and the “ΔOD, 620 nm after 30 Minutes” value (P. aeruginosa [22]) was 0.983. For the same substance, the “differentiation between viable gram-positive and gram-negative bacteria, in words” value [23] was “can be used with RIND XXIX to differentiate between viable gram-positive and gram-negative bacteria”.
